# Test results from patent publication US20130203591A1, “PESTICIDAL MIXTURES INCLUDING ISOXAZOLINE DERIVATIVES” (SYNGENTA CROP PROTECTION LLC, priority 2010, published 2013).
# What was measured:
# Type in all cases: cell-based
# Botrvtis cinerea = experiment: Botrytis cinerea (gray mould) growth inhibition in nutrient broth, microtiter plate
# Description: Botrvtis cinerea (Gray Mould):
# (§1) Conidia of the fungus from cryogenic storage were directly mixed into nutrient broth (potato dextrose broth). After placing a (DMSO) solution of the test compounds into a microtiter plate (96-well format) the nutrient broth containing the fungal spores was added. The test plates were incubated at 24° C. and the inhibition of growth was determined photometrically after 72 hours.
# [1] = system: Glomerella lagenarium (syn. Colletotrichum lagenarium); experiment: Glomerella lagenarium (anthracnose of cucurbits) growth inhibition in nutrient broth, microtiter plate
# Description: Glomerella lagenarium (syn. Colletotrichum lagenarium), Anthracnose of Cucurbits:
# Conidia of the fungus from cryogenic storage were directly mixed into nutrient broth (potato dextrose broth). After placing a (DMSO) solution of the test compounds into a microtiter plate (96-well format) the nutrient broth containing the fungal spores was added. The test plates were incubated at 24° C. and the inhibition of growth was determined photometrically after 72 hours at 620 nm.
# Septoria tritici = Septoria tritici (leaf blotch) growth inhibition in nutrient broth, microtiter plate
# Description: Septoria tritici (Leaf Blotch):
# as §1
# [2] = system: Mycosphaerella arachidis (syn. Cercospora arachidicola); experiment: Mycosphaerella arachidis (brown leaf spot of groundnut) growth inhibition in nutrient broth, microtiter plate
# Description: Mycosphaerella arachidis (syn. Cercospora arachidicola), Brown Leaf Spot of Groundnut (Peanut):
# Conidia of the fungus from cryogenic storage were directly mixed into nutrient broth (potato dextrose broth). After placing a (DMSO) solution of the test compounds into a microtiter plate (96-well format) the nutrient broth containing the fungal spores was added. The test plates were incubated at 24° C. and the inhibition of growth was determined photometrically after approximately 5-6 days at 620 nm.
# Fusarium culmorum = Fusarium culmorum (root rot) growth inhibition in nutrient broth, microtiter plate; details: for AVERAGE DEAD IN % COMPOUND I-A2: COMPOUND I-A2 alone; for AVERAGE DEAD IN % COMPOUND I-A2 / AVERAGE DEAD IN % Epoxiconazole: 48 hrs, 24° C.; for AVERAGE DEAD IN % Epoxiconazole: Epoxiconazole alone
# Description: Fusarium culmorum (Root Rot):
# Conidia of the fungus from cryogenic storage were directly mixed into nutrient broth (potato dextrose broth). After placing a (DMSO) solution of the test compounds into a microtiter plate (96-well format) the nutrient broth containing the fungal spores was added. The test plates were incubated at 24° C. and the inhibition of growth was determined photometrically after 48 hrs.
# [3] = Pyraclostrobin alone 0.5 ppm AI
# [4] = Pyraclostrobin alone 0.00390625 ppm AI
# [5] = Fluxapyroxad alone 0.125 ppm AI
# [6] = Azoxystrobin alone 0.015625 ppm AI
# [7] = Azoxystrobin alone 0.03125 ppm AI
# [8] = Azoxystrobin alone 0.0625 ppm AI
# [9] = Epoxiconazole alone 0.25 ppm AI
# [10] = Epoxiconazole alone 0.0078125 ppm AI
# [11] = Epoxiconazole alone 0.015625 ppm AI
# [12] = Epoxiconazole alone 0.03125 ppm AI
smiles,measurement,setting,value
COC(=O)N(OC)c1ccccc1COc1ccn(-c2ccc(Cl)cc2)n1 [Pyraclostrobin],AVERAGE DEAD IN %,Botrvtis cinerea; Pyraclostrobin alone 0.125 ppm AI,20%
same,AVERAGE DEAD IN %,Botrvtis cinerea; Pyraclostrobin alone 0.25 ppm AI,20%
same,AVERAGE DEAD IN %,Botrvtis cinerea; [3],20%
same,AVERAGE DEAD IN %,Botrvtis cinerea; Pyraclostrobin alone 1 ppm AI,50%
same,AVERAGE DEAD IN %,Botrvtis cinerea; Pyraclostrobin alone 2 ppm AI,70%
same,AVERAGE DEAD IN %,[1]; [4],70%
same,AVERAGE DEAD IN %,[1]; Pyraclostrobin alone 0.0078125 ppm AI,90%
same,AVERAGE DEAD IN %,Septoria tritici; [4],90%
same,AVERAGE DEAD IN %,[2]; [4],90%
same,AVERAGE DEAD IN %,Fusarium culmorum; [3],20%
same,AVERAGE DEAD IN %,Fusarium culmorum; Pyraclostrobin alone 1 ppm AI,20%
same,AVERAGE DEAD IN %,Fusarium culmorum; Pyraclostrobin alone 2 ppm AI,20%
O=C(Nc1ccccc1-c1ccc(Cl)cc1)c1cccnc1Cl [Boscalid],AVERAGE DEAD IN %,Botrvtis cinerea; Boscalid alone 0.0625 ppm AI,20%
same,AVERAGE DEAD IN %,Botrvtis cinerea; Boscalid alone 0.125 ppm AI,20%
same,AVERAGE DEAD IN %,Botrvtis cinerea; Boscalid alone 0.25 ppm AI,20%
same,AVERAGE DEAD IN %,Botrvtis cinerea; Boscalid alone 0.5 ppm AI,50%
same,AVERAGE DEAD IN %,Botrvtis cinerea; Boscalid alone 1 ppm AI,70%
same,AVERAGE DEAD IN %,Botrvtis cinerea; Boscalid alone 2 ppm AI,90%
same,AVERAGE DEAD IN %,Septoria tritici; Boscalid alone 0.25 ppm AI,20%
same,AVERAGE DEAD IN %,Septoria tritici; Boscalid alone 0.5 ppm AI,50%
same,AVERAGE DEAD IN %,Septoria tritici; Boscalid alone 1 ppm AI,90%
same,AVERAGE DEAD IN %,Septoria tritici; Boscalid alone 2 ppm AI,100%
same,AVERAGE DEAD IN %,[2]; Boscalid alone 0.125 ppm AI,70%
same,AVERAGE DEAD IN %,[2]; Boscalid alone 0.25 ppm AI,100%
same,AVERAGE DEAD IN %,[2]; Boscalid alone 0.5 ppm AI,100%
Cn1cc(C(=O)Nc2ccccc2-c2cc(F)c(F)c(F)c2)c(C(F)F)n1 [Fluxapyroxad],AVERAGE DEAD IN %,Septoria tritici; [5],20%
same,AVERAGE DEAD IN %,Septoria tritici; Fluxapyroxad alone 0.25 ppm AI,70%
same,AVERAGE DEAD IN %,Septoria tritici; Fluxapyroxad alone 0.5 ppm AI,100%
same,AVERAGE DEAD IN %,Septoria tritici; Fluxapyroxad alone 1 ppm AI,100%
same,AVERAGE DEAD IN %,[2]; Fluxapyroxad alone 0.015625 ppm AI,0%
same,AVERAGE DEAD IN %,[2]; Fluxapyroxad alone 0.03125 ppm AI,20%
same,AVERAGE DEAD IN %,[2]; Fluxapyroxad alone 0.0625 ppm AI,50%
same,AVERAGE DEAD IN %,[2]; [5],90%
same,AVERAGE DEAD IN %,[2]; Fluxapyroxad alone 0.25 ppm AI,100%
CO/C=C(/C(=O)OC)c1ccccc1Oc1cc(Oc2ccccc2C#N)ncn1 [Azoxystrobin],AVERAGE DEAD IN %,[1]; [6],20%
same,AVERAGE DEAD IN %,[1]; [7],50%
same,AVERAGE DEAD IN %,[1]; [8],70%
same,AVERAGE DEAD IN %,[1]; Azoxystrobin alone 0.125 ppm AI,90%
same,AVERAGE DEAD IN %,Septoria tritici; [7],20%
same,AVERAGE DEAD IN %,Septoria tritici; [8],70%
same,AVERAGE DEAD IN %,[2]; Azoxystrobin alone 0.0078125 ppm AI,0%
same,AVERAGE DEAD IN %,[2]; [6],20%
same,AVERAGE DEAD IN %,[2]; [7],70%
same,AVERAGE DEAD IN %,[2]; [8],90%
Cc1cc(C2=NOC(c3cc(Cl)cc(Cl)c3)(C(F)(F)F)C2)ccc1C(=O)NCC(=O)NCC(F)(F)F (stereo not drawn) [I-A2],AVERAGE DEAD IN %,Botrvtis cinerea; I-A2 alone 0.46875 ppm AI,0%
same,AVERAGE DEAD IN %,Botrvtis cinerea; I-A2 alone 0.9375 ppm AI,0%
same,AVERAGE DEAD IN %,Botrvtis cinerea; I-A2 alone 1.875 ppm AI,0%
same,AVERAGE DEAD IN %,Botrvtis cinerea; I-A2 alone 3.75 ppm AI,0%
same,AVERAGE DEAD IN %,Botrvtis cinerea; I-A2 alone 7.5 ppm AI,0%
same,AVERAGE DEAD IN %,Botrvtis cinerea; I-A2 alone 15 ppm AI,0%
same,AVERAGE DEAD IN %,Botrvtis cinerea; I-A2 alone 30 ppm AI,0%
same,AVERAGE DEAD IN %,Botrvtis cinerea; I-A2 alone 60 ppm AI,0%
same,AVERAGE DEAD IN %,[1]; I-A2 alone 0.1171875 ppm AI,0%
same,AVERAGE DEAD IN %,[1]; I-A2 alone 0.234375 ppm AI,0%
same,AVERAGE DEAD IN %,[1]; I-A2 alone 0.46875 ppm AI,0%
same,AVERAGE DEAD IN %,[1]; I-A2 alone 0.9375 ppm AI,0%
same,AVERAGE DEAD IN %,[1]; I-A2 alone 1.875 ppm AI,0%
same,AVERAGE DEAD IN %,[1]; I-A2 alone 3.75 ppm AI,0%
same,AVERAGE DEAD IN %,[1]; I-A2 alone 7.5 ppm AI,0%
same,AVERAGE DEAD IN %,[1]; I-A2 alone 15 ppm AI,0%
same,AVERAGE DEAD IN %,[1]; I-A2 alone 30 ppm AI,0%
same,AVERAGE DEAD IN %,[1]; I-A2 alone 60 ppm AI,0%
same,AVERAGE DEAD IN %,Septoria tritici; I-A2 alone 0.1171875 ppm AI,0%
same,AVERAGE DEAD IN %,Septoria tritici; I-A2 alone 0.234375 ppm AI,0%
same,AVERAGE DEAD IN %,Septoria tritici; I-A2 alone 0.46875 ppm AI,0%
same,AVERAGE DEAD IN %,Septoria tritici; I-A2 alone 0.9375 ppm AI,0%
same,AVERAGE DEAD IN %,Septoria tritici; I-A2 alone 1.875 ppm AI,0%
same,AVERAGE DEAD IN %,Septoria tritici; I-A2 alone 3.75 ppm AI,0%
same,AVERAGE DEAD IN %,Septoria tritici; I-A2 alone 7.5 ppm AI,0%
same,AVERAGE DEAD IN %,Septoria tritici; I-A2 alone 15 ppm AI,0%
same,AVERAGE DEAD IN %,Septoria tritici; I-A2 alone 30 ppm AI,0%
same,AVERAGE DEAD IN %,Septoria tritici; I-A2 alone 60 ppm AI,0%
same,AVERAGE DEAD IN %,[2]; I-A2 alone 0.1171875 ppm AI,0%
same,AVERAGE DEAD IN %,[2]; I-A2 alone 0.234375 ppm AI,0%
same,AVERAGE DEAD IN %,[2]; I-A2 alone 0.46875 ppm AI,0%
same,AVERAGE DEAD IN %,[2]; I-A2 alone 0.9375 ppm AI,0%
same,AVERAGE DEAD IN %,[2]; I-A2 alone 1.875 ppm AI,0%
same,AVERAGE DEAD IN %,[2]; I-A2 alone 3.75 ppm AI,0%
same,AVERAGE DEAD IN %,[2]; I-A2 alone 7.5 ppm AI,0%
same,AVERAGE DEAD IN %,[2]; I-A2 alone 15 ppm AI,0%
same,AVERAGE DEAD IN % COMPOUND I-A2,Fusarium culmorum; 0.9375 PPM AI,0%
same,AVERAGE DEAD IN % COMPOUND I-A2,Fusarium culmorum; 1.875 PPM AI,0%
same,AVERAGE DEAD IN % COMPOUND I-A2,Fusarium culmorum; 3.75 PPM AI,0%
same,AVERAGE DEAD IN % COMPOUND I-A2,Fusarium culmorum; 7.5 PPM AI,0%
same,AVERAGE DEAD IN % COMPOUND I-A2,Fusarium culmorum; 15 PPM AI,0%
same,AVERAGE DEAD IN % COMPOUND I-A2,Fusarium culmorum; 30 PPM AI,0%
same,AVERAGE DEAD IN % COMPOUND I-A2,Fusarium culmorum; 60 PPM AI,0%
same,AVERAGE DEAD IN %,Fusarium culmorum; I-A2 alone 3.75 ppm AI,0%
same,AVERAGE DEAD IN %,Fusarium culmorum; I-A2 alone 7.5 ppm AI,0%
same,AVERAGE DEAD IN %,Fusarium culmorum; I-A2 alone 15 ppm AI,0%
same,AVERAGE DEAD IN %,Fusarium culmorum; I-A2 alone 30 ppm AI,0%
same,AVERAGE DEAD IN %,Fusarium culmorum; I-A2 alone 60 ppm AI,0%
Fc1ccc([C@]2(Cn3cncn3)O[C@H]2c2ccccc2Cl)cc1 (racemic) [Epoxiconazole],AVERAGE DEAD IN %,Botrvtis cinerea; [9],20%
same,AVERAGE DEAD IN %,Botrvtis cinerea; Epoxiconazole alone 0.5 ppm AI,90%
same,AVERAGE DEAD IN %,Botrvtis cinerea; Epoxiconazole alone 1 ppm AI,100%
same,AVERAGE DEAD IN %,Botrvtis cinerea; Epoxiconazole alone 2 ppm AI,100%
same,AVERAGE DEAD IN %,[1]; [9],20%
same,AVERAGE DEAD IN %,[1]; Epoxiconazole alone 0.5 ppm AI,50%
same,AVERAGE DEAD IN %,[1]; Epoxiconazole alone 1 ppm AI,70%
same,AVERAGE DEAD IN %,[1]; Epoxiconazole alone 2 ppm AI,90%
same,AVERAGE DEAD IN %,Septoria tritici; [10],0%
same,AVERAGE DEAD IN %,Septoria tritici; [11],0%
same,AVERAGE DEAD IN %,Septoria tritici; [12],20%
same,AVERAGE DEAD IN %,Septoria tritici; Epoxiconazole alone 0.0625 ppm AI,50%
same,AVERAGE DEAD IN %,Septoria tritici; Epoxiconazole alone 0.125 ppm AI,70%
same,AVERAGE DEAD IN %,Septoria tritici; [9],90%
same,AVERAGE DEAD IN %,Septoria tritici; Epoxiconazole alone 0.5 ppm AI,90%
same,AVERAGE DEAD IN %,Septoria tritici; Epoxiconazole alone 1 ppm AI,90%
same,AVERAGE DEAD IN %,Septoria tritici; Epoxiconazole alone 2 ppm AI,90%
same,AVERAGE DEAD IN %,[2]; [10],0%
same,AVERAGE DEAD IN %,[2]; [11],0%
same,AVERAGE DEAD IN %,[2]; [12],20%
same,AVERAGE DEAD IN % Epoxiconazole,Fusarium culmorum; 0.125 PPM AI,20%
same,AVERAGE DEAD IN % Epoxiconazole,Fusarium culmorum; 0.25 PPM AI,20%
same,AVERAGE DEAD IN % Epoxiconazole,Fusarium culmorum; 0.5 PPM AI,20%
same,AVERAGE DEAD IN % Epoxiconazole,Fusarium culmorum; 1 PPM AI,20%
same,AVERAGE DEAD IN % Epoxiconazole,Fusarium culmorum; 2 PPM AI,20%
